Results from US9730937B2, “RAF kinase modulator compounds and methods of use thereof” (AMBIT BIOSCIENCES CORPORATION, priority 2008, dated 2017).

The molecules below were run on panel of 290 distinct kinases (321 in the larger panel), excluding mutant variants. Conditions: asterisk: panel of 321 distinct kinases.

Structure (SMILES)	S35
COc1cc2ncnc(Oc3cccc(NC(=O)Nc4cc(C(F)(F)F)no4)c3)c2cc1OC [Ex 254, 1-(3-(6,7-dimethoxyquinazolin-4-yloxy)phenyl)-3-(3-(trifluoromethyl)isoxazol-5-yl)urea]	C* (0.20 < C ≦ 0.40)

Same assay, conditions: no asterisk: panel of 290 distinct kinases

Structure (SMILES)	S35
COc1cc2c(Oc3cccc(NC(=O)Nc4cc(C(C)(C)C)on4)c3)ncnc2cc1OCCCN1CCS(=O)(=O)CC1 [Ex 256, 1-(5-tert-butyl-isoxazol-3-yl)-3-(3-{7-[3-(1,1-dioxo-thiomorpholin-4-yl)-propoxy]-6-methoxy-quinazolin-4-yloxy}-phenyl)-urea]	D (D > 0.40)
COc1cc2c(Oc3cccc(NC(=O)Nc4cc(C(C)(C)F)no4)c3)ncnc2cc1O [Ex 257, 1-(3-(2-fluoropropan-2-yl)isoxazol-5-yl)-3-(3-(7-hydroxy-6-methoxyquinazolin-4-yloxy)phenyl)urea]	C (0.20 < C ≦ 0.40)
COc1cc2ncnc(Oc3cccc(NC(=O)Nc4cc(C(C)(C)F)no4)c3)c2cc1O [Ex 258, 1-(3-(2-fluoropropan-2-yl)isoxazol-5-yl)-3-(3-(6-hydroxy-7-methoxyquinazolin-4-yloxy)phenyl)urea]	C (0.20 < C ≦ 0.40)
COc1cc2ncnc(Oc3cccc(NC(=O)Nc4cc(C(C)(C)C(F)(F)F)on4)c3)c2cc1OC [Ex 259, 1-(3-(6,7-dimethoxyquinazolin-4-yloxy)phenyl)-3-(5-(1,1,1-trifluoro-2-methylpropan-2-yl)isoxazol-3-yl)urea]	C (0.20 < C ≦ 0.40)
CCOc1cc2c(Oc3cccc(NC(=O)Nc4cc(C(C)(C)C(F)(F)F)on4)c3)ncnc2cc1OC [Ex 260, 1-(3-(6-ethoxy-7-methoxyquinazolin-4-yloxy)phenyl)-3-(5-(1,1,1-trifluoro-2-methylpropan-2-yl)isoxazol-3-yl)urea]	C (0.20 < C ≦ 0.40)
CCOc1cc2c(Sc3cccc(NC(=O)Nc4cc(C(C)(C)C(F)(F)F)on4)c3)ncnc2cc1OC [Ex 262, 1-(3-(6-ethoxy-7-methoxyquinazolin-4-ylthio)phenyl)-3-(5-(1,1,1-trifluoro-2-methylpropan-2-yl)isoxazol-3-yl)urea]	C (0.20 < C ≦ 0.40)
COc1cc2c(Oc3cccc(NC(=O)Nc4cc(C(C)(C)C(F)(F)F)on4)c3)ncnc2cc1O [Ex 263, 1-(3-(7-hydroxy-6-methoxyquinazolin-4-yloxy)phenyl)-3-(5-(1,1,1-trifluoro-2-methylpropan-2-yl)isoxazol-3-yl)urea]	C (0.20 < C ≦ 0.40)
COc1cc2ncnc(Oc3cccc(NC(=O)Nc4cc(C(C)(C)C(F)(F)F)on4)c3)c2cc1O [Ex 264, 1-(3-(6-hydroxy-7-methoxyquinazolin-4-yloxy)phenyl)-3-(5-(1,1,1-trifluoro-2-methylpropan-2-yl)isoxazol-3-yl)urea]	C (0.20 < C ≦ 0.40)
COc1cc2ncnc(Oc3cccc(NC(=O)Nc4cc(C(C)(C)C(F)(F)F)on4)c3F)c2cc1OC [Ex 265, 1-(3-(6,7-dimethoxyquinazolin-4-yloxy)-2-fluorophenyl)-3-(5-(1,1,1-trifluoro-2-methylpropan-2-yl)isoxazol-3-yl)urea]	C (0.20 < C ≦ 0.40)
COc1cc2ncnc(Oc3cc(NC(=O)Nc4cc(C(C)(C)C(F)(F)F)on4)ccc3F)c2cc1OC [Ex 266, 1-(3-(6,7-dimethoxyquinazolin-4-yloxy)-4-fluorophenyl)-3-(5-(1,1,1-trifluoro-2-methylpropan-2-yl)isoxazol-3-yl)urea]	C (0.20 < C ≦ 0.40)
COc1cc2ncnc(Oc3cccc(NC(=O)Nc4cc(C(C)(C)C(F)(F)F)no4)c3)c2cc1OC [Ex 267, 1-(3-(6,7-dimethoxyquinazolin-4-yloxy)phenyl)-3-(3-(1,1,1-trifluoro-2-methylpropan-2-yl)isoxazol-5-yl)urea]	C (0.20 < C ≦ 0.40)
COc1cc2ncnc(Sc3cccc(NC(=O)Nc4cc(C(C)(C)C(F)(F)F)no4)c3)c2cc1OC [Ex 268, 1-(3-(6,7-dimethoxyquinazolin-4-ylthio)phenyl)-3-(3-(1,1,1-trifluoro-2-methylpropan-2-yl)isoxazol-5-yl)urea]	C (0.20 < C ≦ 0.40)
COc1cc2ncnc(Oc3cc(NC(=O)Nc4cc(C(C)(C)F)no4)c(F)cc3F)c2cc1OC [Ex 269, 1-(5-(6,7-dimethoxyquinazolin-4-yloxy)-2,4-difluorophenyl)-3-(3-(2-fluoropropan-2-yl)isoxazol-5-yl)urea]	D (D > 0.40)
COc1cc2ncnc(Oc3cc(NC(=O)Nc4cc(C(C)(C)C)on4)c(F)cc3F)c2cc1OC [Ex 270, 1-(5-tert-butylisoxazol-3-yl)-3-(5-(6,7-dimethoxyquinazolin-4-yloxy)-2,4-difluorophenyl)urea]	D (D > 0.40)
COc1cc2ncnc(Oc3cc(NC(=O)Nc4cc(C(F)(F)F)nn4-c4ccccc4)c(F)cc3F)c2cc1OC [Ex 271, 1-(5-(6,7-dimethoxyquinazolin-4-yloxy)-2,4-difluorophenyl)-3-(1-phenyl-3-(trifluoromethyl)-1H-pyrazol-5-yl)urea]	D (D > 0.40)
COc1cc2ncnc(Oc3cc(NC(=O)Nc4cc(C(C)(C)C)nn4-c4ccc(C)cc4)c(F)cc3F)c2cc1OC [Ex 272, 1-(3-tert-butyl-1-p-tolyl-1H-pyrazol-5-yl)-3-(5-(6,7-dimethoxyquinazolin-4-yloxy)-2,4-difluorophenyl)urea]	D (D > 0.40)

Structure (SMILES)	S35
COc1cc2ncnc(Oc3cc(NC(=O)Nc4cc(C(C)(C)C)nn4-c4ccccc4)c(F)cc3F)c2cc1OC [Ex 273, 1-(3-tert-butyl-1-phenyl-1H-pyrazol-5-yl)-3-(5-(6,7-dimethoxyquinazolin-4-yloxy)-2,4-difluorophenyl)urea]	D (D > 0.40)
COc1cc2ncnc(Oc3cccc(NC(=O)Nc4cc(C(C)(C)C)nn4-c4ccc(C)cc4)c3)c2cc1OC [Ex 274, 1-(3-tert-butyl-1-p-tolyl-1H-pyrazol-5-yl)-3-(3-(6,7-dimethoxyquinazolin-4-yloxy)phenyl)urea]	D (D > 0.40)
COc1cc2ncnc(Sc3cccc(NC(=O)Nc4cc(C(C)(C)C)nn4-c4ccc(C)cc4)c3)c2cc1OC [Ex 275, 1-(3-tert-butyl-1-p-tolyl-1H-pyrazol-5-yl)-3-(3-(6,7-dimethoxyquinazolin-4-ylthio)phenyl)urea]	D (D > 0.40)
COCCOc1cc2ncnc(Oc3cccc(NC(=O)Nc4cc(C(C)(C)C)nn4-c4ccc(C)cc4)c3)c2cc1OC [Ex 276, 1-(3-tert-butyl-1-p-tolyl-1H-pyrazol-5-yl)-3-(3-(6-methoxy-7-(2-methoxyethoxy)quinazolin-4-yloxy)phenyl)urea]	D (D > 0.40)
COCCOc1cc2ncnc(Sc3cccc(NC(=O)Nc4cc(C(C)(C)C)nn4-c4ccc(C)cc4)c3)c2cc1OC [Ex 277, 1-(3-tert-butyl-1-p-tolyl-1H-pyrazol-5-yl)-3-(3-(6-methoxy-7-(2-methoxyethoxy)quinazolin-4-ylthio)phenyl)urea]	D (D > 0.40)
COc1cc2ncnc(Oc3cccc(NC(=O)Nc4cccc(C(C)(C)C#N)c4)c3)c2cc1OC [Ex 278, 1-(3-(2-cyanopropan-2-yl)phenyl)-3-(3-(6,7-dimethoxyquinazolin-4-yloxy)phenyl)urea]	C (0.20 < C ≦ 0.40)
COc1cc2ncnc(Sc3cccc(NC(=O)Nc4cccc(C(C)(C)C#N)c4)c3)c2cc1OC [Ex 279, 1-(3-(2-cyanopropan-2-yl)phenyl)-3-(3-(6,7-dimethoxyquinazolin-4-ylthio)phenyl)urea]	C (0.20 < C ≦ 0.40)
COc1cc2ncnc(Oc3cccc(NC(=O)Nc4cc(C(C)(C)C)nn4-c4ccc(C)cc4C)c3)c2cc1OC [Ex 282, 1-(3-tert-butyl-1-(2,4-dimethylphenyl)-1H-pyrazol-5-yl)-3-(3-(6,7-dimethoxyquinazolin-4-yloxy)phenyl)urea]	C (0.20 < C ≦ 0.40)
COCCOc1cc2ncnc(Sc3cccc(NC(=O)Nc4cc(C(C)(C)C)nn4-c4ccc(C)cc4C)c3)c2cc1OC [Ex 283, 1-(3-tert-butyl-1-(2,4-dimethylphenyl)-1H-pyrazol-5-yl)-3-(3-(6-methoxy-7-(2-methoxyethoxy)quinazolin-4-ylthio)phenyl)urea]	C (0.20 < C ≦ 0.40)
COc1cc2ncnc(Sc3cccc(NC(=O)Nc4cc(C(C)(C)C)nn4-c4ccc(C)cc4C)c3)c2cc1OC [Ex 284, 1-(3-tert-butyl-1-(2,4-dimethylphenyl)-1H-pyrazol-5-yl)-3-(3-(6,7-dimethoxyquinazolin-4-ylthio)phenyl)urea]	C (0.20 < C ≦ 0.40)
COc1cc2ncnc(Oc3cccc(NC(=O)Nc4cc(C(C)(C)C)nn4-c4cccc(C)c4)c3)c2cc1OC [Ex 285, 1-(3-tert-butyl-1-m-tolyl-1H-pyrazol-5-yl)-3-(3-(6,7-dimethoxyquinazolin-4-yloxy)phenyl)urea]	D (D > 0.40)
COc1cc2ncnc(Sc3cccc(NC(=O)Nc4cc(C(C)(C)C)nn4-c4cccc(C)c4)c3)c2cc1OC [Ex 286, 1-(3-tert-butyl-1-m-tolyl-1H-pyrazol-5-yl)-3-(3-(6,7-dimethoxyquinazolin-4-ylthio)phenyl)urea]	D (D > 0.40)
COCCOc1cc2ncnc(Sc3cccc(NC(=O)Nc4cc(C(C)(C)C)nn4-c4cccc(C)c4)c3)c2cc1OC [Ex 287, 1-(3-tert-butyl-1-m-tolyl-1H-pyrazol-5-yl)-3-(3-(6-methoxy-7-(2-methoxyethoxy)quinazolin-4-ylthio)phenyl)urea]	D (D > 0.40)
COc1cc2ncnc(Oc3cccc(NC(=O)Nc4cc(C(C)(C)C)nn4-c4ccc(C)cc4)c3C)c2cc1OC [Ex 288, 1-(3-tert-butyl-1-p-tolyl-1H-pyrazol-5-yl)-3-(3-(6,7-dimethoxyquinazolin-4-yloxy)-2-methylphenyl)urea]	C (0.20 < C ≦ 0.40)
COc1cc2ncnc(Oc3cccc(NC(=O)Nc4cc(C(C)(C)C)nn4-c4ccccc4)c3C)c2cc1OC [Ex 289, 1-(3-tert-butyl-1-phenyl-1H-pyrazol-5-yl)-3-(3-(6,7-dimethoxyquinazolin-4-yloxy)-2-methylphenyl)urea]	C (0.20 < C ≦ 0.40)
COc1cc2ncnc(Oc3cccc(NC(=O)Nc4cc(C(C)(C)C)on4)c3C)c2cc1OC [Ex 290, 1-(5-tert-butylisoxazol-3-yl)-3-(3-(6,7-dimethoxyquinazolin-4-yloxy)-2-methylphenyl)urea]	C (0.20 < C ≦ 0.40)
